This is an account of results in EP1951725B1, “N-SULFAMOYL-N -BENZOPYRANPIPERIDINES AS INHBITORS OF CARBONIC ANHYDRASES” (Abbott Products GmbH, priority 2005, dated 2007).

For assay [1], the target named is T1, human carbonic anhydrase isoenzyme II (hCA II) (Homo sapiens, UniProt P00918).
T1 construct: human carbonic anhydrase isoenzyme II from erythrocytes (Sigma-Aldrich); purchased Sigma-Aldrich; host or cells: human erythrocytes (natural source)
Nature of the assay: biochemical. Type of assay: binding. Conditions: hCA II from erythrocytes 10^-7 M/L, dansylamide 2.25x10^-6, pH 7.4, 60 min preincubation, read at 60 min at 37°C, single measurements. The procedure: 1. In vitro inhibition of human carbonic anhydrase isoenzyme II (hCA II)
The test compounds of general Formula I in 96 well microplates were diluted with aqua bidest by using an automatic pipettor (CyBiWell®). From the different dilution plates, aliquots of 20 µl were transferred to the 96 well black assay plates with a pipetting station (Tecan Genesis®). In a second step, 148 µl of potassium phosphate buffer (20 mM, pH 7.4) was added, and as a third step, 20 µl of enzyme solution (1 µM human carbonic anhydrase isoenzyme II from erythrocytes (Sigma-Aldrich), dissolved in potassium phosphate buffer) incubated for 60 min at room temperature and the fluorescence signal (Tecan Ultra® fluorescence reader; excitation wavelength: 280 nm; emission wavelength: 465 nm) read at the end of the preincubation period (FLU-1). After the preincubation time, 20 µl of aqueous dansylamide solution (1 mM dansylamide (Sigma-Aldrich), dissolved in hydrochloric acid) were added and the fluorescence signal read every 10 min for a period of 60 min at 37°C. For calculation, the fluorescence data of the time point 60 min (FLU-2) were used. The total volume of assay mixture amounted to 208 µl. […] Data were expressed as % inhibition after calculation by the formula: % inhibition = 100((1-(FLU-2_cpd-FLU-2_blank-FLU-1_cpd+FLU-1_blank)/(FLU-2_control-FLU-2_blank-FLU-1_control-FLU-1_blank)) [formula] […]

Assay [2] can be described thus: Acute in vivo food intake test in mice. Conditions: 24h food intake, male or female C57BI/6 mice, high caloric diet, oral gavage 100 mg/kg/day in two half doses. The procedure: 2. Acute in vivo food intake test in mice
The studies were carried out in male or female C57BI/6 mice (n=8-12 per group). The mice were kept on an inverted 12/12h light/dark cycle (lights on 22:00). They were allowed food (high caloric diet) and water ad libitum. Food intake and water consumption was measured daily. The test compound of general Formula I was suspended in 1% methylcellulose in water and 2% (v/v) of Poloxamer 188 (Lutrol F68®) and administered by oral gavage at a dose of 100 mg/kg/day. One half of the dose was administered at 7.00-9.00 h; the remaining half of the dose was administered between 15.00-15.30 h.
In the test model described above, the test substances caused a decrease of the animals' 24h food intake to the percentages of food intake when compared to control as given in Table 2 below. Table 2: Influence of test substances on food intake

In the case of `NS(=O)(=O)N1CCC2(CC1)CC(=O)c1cc(Br)ccc1O2` [Example 2], 6.6 µM corresponded to half-maximal inhibition in assay [1] (IC50). As to `NS(=O)(=O)N1CCC2(CC1)CC(=O)c1ccccc1O2` [Example 1], the food intake in assay [2] is reported as 83 % of control.

By IC50 is commonly meant the concentration at which inhibition is half-maximal.
